These results are taken from patent US6737439B2, “Aromatase inhibitors from Broussonetia papyrifera” (The Board of Trustees of the University of Illinois, priority 2001, dated 2004).

One data set deals with T1, aromatase (Homo sapiens, UniProt P11511).
T1 construct: Reaction mixtures were prepared in glass tubes containing 4 μL of placental microsomes (5 mg/mL); from tissue; host or cells: human term placenta (microsomal fraction)
T1 sequence (P11511 1-503): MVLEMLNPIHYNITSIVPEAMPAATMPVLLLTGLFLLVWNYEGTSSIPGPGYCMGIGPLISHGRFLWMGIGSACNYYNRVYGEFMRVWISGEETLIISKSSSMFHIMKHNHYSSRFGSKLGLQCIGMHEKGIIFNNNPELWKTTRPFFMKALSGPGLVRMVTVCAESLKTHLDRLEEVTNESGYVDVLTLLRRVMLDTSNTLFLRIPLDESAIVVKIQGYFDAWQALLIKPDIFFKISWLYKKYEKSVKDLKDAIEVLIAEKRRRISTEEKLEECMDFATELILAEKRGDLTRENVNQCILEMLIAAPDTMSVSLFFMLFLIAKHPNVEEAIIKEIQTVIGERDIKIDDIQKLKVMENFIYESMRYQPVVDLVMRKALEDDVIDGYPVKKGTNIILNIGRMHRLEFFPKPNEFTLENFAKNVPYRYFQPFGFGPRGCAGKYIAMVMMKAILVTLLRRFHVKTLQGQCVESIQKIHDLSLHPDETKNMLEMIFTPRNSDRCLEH
The data set is described as follows: Assay for inhibition of aromatase activity (human placental microsomes, [1,2-3H]androstenedione). Conditions: for aromatase inhibition, result in words: in vitro aromatase assay; for fold greater aromatase inhibition potency than aminoglutethimide: versus positive control aminoglutethimide. The format is biochemical. How it is done: Assay for Inhibition of Aromatase Activity. Microsomes were prepared from freshly delivered human term placentas using 0.05 M potassium phosphate buffer, pH 7.4, and stored frozen in plastic tubes at −70° C. […] After a 4 min incubation at 37° C., the reaction was terminated by adding 3 mL of chloroform. The tubes were centrifuged at 2,000×g for 10 min and then 300 μL of the aqueous phases were transferred to tubes containing 300 μL of charcoal/dextrin solution (5%). Following another 10 min centrifugation at 2,000×g, supernatant fractions (500 μL) were used for the determination of radioactivity. Inhibition of aromatase activity was calculated using the following equation: [formula]
Samples were tested in duplicate and the mean values were used to prepare dose-response curves. Results were typically expressed as IC50 values.

The subject of data set [1] is alveolar lesions in a mouse mammary organ culture model. Nature of the data set: Mouse mammary organ culture model, formation of alveolar lesions. Conditions: tested at 100 ng/ml. The format is cell-based.
Data set [2] deals with tumors in Sprague-Dawley rats. Conditions: 400 mg/kg diet; cited from earlier work.
Where [3] appears, read: human placental microsomes, read-out: IC50 (μM), aromatase inhibitory activity.
Setting [4] is: read-out: IC50, inactive in the aromatase inhibition assay at the dose levels used.

Several values for one entry are separate records, joined by “and”; a condition that tells them apart may be missing. Equal values may be shown once. Entries after “also recorded” stand apart in the source; their conditions may differ. Read-outs that look alike come from different tables or passages of the source.

Turning to `CC(C)(O)C1Cc2c(ccc3c2O[C@H](c2ccc(O)cc2O)CC3=O)O1` (stereo partly drawn) [Compound 11, 2S-2′,4′-Dihydroxy-2″-(1-hydroxy-1-methylethyl)-dihydrofuro[2,3-h]flavanone], the IC50 at aromatase (setting [3]) is ~0.1 µM and 0.11 µM. Further, on aromatase, the “aromatase inhibition, result in words” value is given as “active” and the “fold greater aromatase inhibition potency than aminoglutethimide” value is “approximately 60 fold”. The molecule further had an inhibition at 0.1 µg/mL in data set [1] of 50%. On to `O=C1c2c(O)cc(O)cc2O[C@H](c2ccc(O)cc2O)[C@H]1O` [(2R,3R)-5,7,2′,4′-tetrahydroxyflavanonol, (2R,3R)-5,7,2′,4′-Tetrahydroxyflavanonol], for which the “aromatase inhibition, result in words” value at aromatase is “did not show potent aromatase inhibition”. For `COc1c(-c2ccc(O)c(O)c2)oc2cc(O)c(C/C=C(\C)CCC=C(C)C)c(O)c2c1=O` [Compound 3, 5,7,3′,4′-Tetrahydroxy-3-methoxy-6-geranylflavone], the melting point is 98 to 99 °C. Besides, at aromatase, the “aromatase inhibition, result in words” value was “not active; also recorded: inactive”. As to `COc1ccc(CCCc2ccc(O)cc2)c(O)c1` [Compound 18, Broussonin A], the IC50 on aromatase (setting [3]) was 30 µM. Besides, the “aromatase inhibition, result in words” value on aromatase was “did not show potent aromatase inhibition”. For `COc1cc(O)ccc1CCCc1ccc(O)cc1` [broussonin B, Broussonin B], on aromatase, the “aromatase inhibition, result in words” value is listed as “did not show potent aromatase inhibition”. `CC(C)=CCc1c(O)cc(O)cc1-c1cc2ccc(O)cc2o1` [Compound 10, Demethylmoracin I]: the IC50 on aromatase (setting [3]) was 31.1 µM. Further, the “aromatase inhibition, result in words” value on aromatase was “did not show potent aromatase inhibition; also recorded: active”. For the molecule `CC(C)=CCc1cc([C@@H]2CCc3ccc(O)cc3O2)ccc1O` [Compound 4, (2S)-7,4′-Dihydroxy-3′-prenylflavan], at aromatase, the “aromatase inhibition, result in words” value was “did not show potent aromatase inhibition; also recorded: inactive”. Turning to Aminoglutethimide, in data set [2], the MNU-induced tumor incidence result is “effectively reduces”. For `CC(C)=CCc1cc2c(cc1O)O[C@H](c1ccc(O)cc1)CC2=O` [bavachin, Bavachin], the “aromatase inhibition, result in words” value at aromatase is given as “not active”. `COc1cc(O)ccc1CCCc1ccc(O)c(CC=C(C)C)c1` [Compound 7, 1-(4-Hydroxy-2-methoxyphenyl)-3-(4-hydroxy-3-prenylphenyl)propane] returned a melting point of 85 to 86 °C. Further, the “aromatase inhibition, result in words” value on aromatase was “inactive”. Turning to `CC(C)=CCc1cc([C@H]2Oc3c(CC=C(C)C)c(O)cc(O)c3C(=O)[C@@H]2O)ccc1O` [(2R,3R)-lespedezaflavanone C, (2R,3R)-Lespedezaflavanone C], on aromatase, the “aromatase inhibition, result in words” value was “did not show potent aromatase inhibition”.

In the case of `CC(C)=CCc1cc2cc(-c3cc(O)cc(O)c3)oc2cc1O` [Compound 20, Moracin N], the IC50 on aromatase (setting [3]) came to 31.1 µM. Also, the “aromatase inhibition, result in words” value at aromatase was “did not show potent aromatase inhibition”. Regarding `Oc1ccc(CCCc2ccc(O)cc2O)cc1` [Compound 5, 1-(2,4-Dihydroxyphenyl)-3-(4-hydroxyphenyl)propane], the melting point is 92 to 93 °C. On aromatase, the “aromatase inhibition, result in words” value is “inactive”. On to `CC1(C)C=Cc2c(O)cc(-c3cc4ccc(O)cc4o3)cc2O1` [moracin D, Moracin D], for which, at aromatase, the “aromatase inhibition, result in words” value was “did not show potent aromatase inhibition”. For `CC(C)=CCc1c(O)ccc(CCCc2ccc(O)cc2)c1O` [Compound 6, 1-(2,4-Dihydroxy-3-prenylphenyl)-3-(4-hydroxyphenyl)propane], the melting point fell in the range of 115 to 116 °C. At aromatase, the “aromatase inhibition, result in words” value is “inactive”. As to `C/C(=C\Cc1c(O)ccc(C(=O)/C=C/c2ccc(O)cc2O)c1O)COC(=O)/C=C/c1ccc(O)cc1` [Compound 9, 3′-[γ-Hydroxymethyl-(E)-γ-methylallyl]-2,4,2′,4′-tetrahydroxychalcone 11′-O-coumarate], the IC50 at aromatase (setting [3]) is 0.5 µM and 0.52 µM. In addition, at aromatase, the “aromatase inhibition, result in words” value is recorded as “active” and the “fold greater aromatase inhibition potency than aminoglutethimide” value was “approximately ten”. Take `COc1cc(/C=C/C(=O)OC/C(C)=C/Cc2c(O)ccc(C(=O)/C=C/c3ccc(O)cc3O)c2O)ccc1O` [Compound 8, 3′-(γ-hydroxymethyl-(E)-γ-methylallyl)-2,4,2′,4′-tetrahydroxychalcone 11′-O-ferulate]: the IC50 on aromatase (setting [3]) is 7.1 µM. The “aromatase inhibition, result in words” value at aromatase is “active”. As for `CC(C)=CCc1c(O)cc2oc(-c3ccc(O)c(O)c3)c(O)c(=O)c2c1O` [gancaonin P, Gancaonin P], the “aromatase inhibition, result in words” value at aromatase was “not active”. As to `CC(C)=CCC/C(C)=C/Cc1c(O)cc2oc(-c3ccc(O)c(O)c3)c(O)c(=O)c2c1O` [Compound 2, 5,7,3′,4′-Tetrahydroxy-6-geranylflavonol], the “aromatase inhibition, result in words” value on aromatase is “not active; also recorded: inactive”. With `CC(C)=CCc1cc(-c2oc3c(CC=C(C)C)c(O)cc(O)c3c(=O)c2O)ccc1O` [Compound 16, Broussoflavonol F], on aromatase (setting [3]), the IC50 is 9.7 µM.

In turn, `COc1ccc2c(c1CC=C(C)C)O[C@H](c1ccc(O)cc1O)CC2` [Compound 22, (2S)-2′,4′-Dihydroxy-7-methoxy-8-prenylflavan] gave a melting point of 95 to 96 °C. Moreover, the “aromatase inhibition, result in words” value on aromatase is listed as “did not show potent aromatase inhibition”. Further, the IC50 at aromatase (setting [4]) is over 118 µM. On to (2S)-Euchrenone a7 [Compound 15], for which the IC50 at aromatase (setting [3]) came out at 3.4 µM.

`Oc1ccc([C@@H]2CCc3ccc(O)cc3O2)cc1` [(2S)-7,4′-dihydroxyflavan, (2S)-7,4′-Dihydroxyflavan]: the “aromatase inhibition, result in words” value at aromatase is given as “did not show potent aromatase inhibition”.

As for `Oc1cc(O)cc(-c2cc3ccc(O)cc3o2)c1` [moracin M, Moracin M], the “aromatase inhibition, result in words” value at aromatase is recorded as “did not show potent aromatase inhibition”. As to `CC1=C[C@@H]2c3c(O)cc(-c4cc5ccc(O)cc5o4)cc3O[C@]3(c4ccc(O)cc4O)Oc4cc(O)ccc4[C@@H](C1)[C@H]23` [Compound 21, Albanol A], the half-maximal inhibitory concentration (IC50) on aromatase (setting [3]) came to 7.5 µM.

On to `O=c1ccc2c(O)cc(O)cc2o1` [5,7-dihydrocoumarin, 5,7-Dihydroxycoumarin], for which the IC50 on aromatase (setting [4]) was over 225 µM. For the molecule Broussonin F, on aromatase, the “aromatase inhibition, result in words” value was “did not show potent aromatase inhibition”.

Consider `CC(C)=CCc1c(O)ccc(C(=O)/C=C/c2ccc(O)cc2O)c1O` [Compound 19, 2,4,2′,4′-Tetrahydroxy-3′-prenylchalcone], for which the IC50 at aromatase (setting [3]) worked out at 4.6 µM. Turning to `O=C1c2c(O)cc(O)cc2O[C@H](c2ccc(O)cc2)[C@H]1O` [(2R,3R)-katuranin, (2R,3R)-Katuranin], the “aromatase inhibition, result in words” value on aromatase is listed as “did not show potent aromatase inhibition”. For `CC(C)=CCC/C(C)=C/Cc1c(-c2ccc(O)cc2O)oc2cc(O)cc(O)c2c1=O` [Compound 1, 5,7,2′,4′-Tetrahydroxy-3-geranylflavone], the melting point lay within 94 to 95 °C. Besides, the IC50 at aromatase (setting [3]) came out at 24 µM. The “aromatase inhibition, result in words” value at aromatase is listed as “active”. Take `COc1cc(O)cc(-c2cc3ccc(O)cc3o2)c1CC=C(C)C` [moracin I, Moracin I]: the “aromatase inhibition, result in words” value on aromatase is listed as “did not show potent aromatase inhibition”. Take `O=C1C[C@@H](c2ccc(O)cc2O)Oc2cc(O)cc(O)c21` [Compound 14, (2S)-5,7,2′,4′-Tetrahydroxyflavanone]: at aromatase (setting [3]), the IC50 is 2.2 µM. Turning to `COc1ccc(CCCc2ccc(OC)c(O)c2)c(O)c1` [broussonin E, Broussonin E], the “aromatase inhibition, result in words” value on aromatase is listed as “did not show potent aromatase inhibition”.

By IC50 is commonly meant the midpoint of a concentration-inhibition curve. As usually defined, the inhibition is the percentage by which the read-out fell short of the control. What is called melting point is the temperature, or range, at which the solid turns liquid.
